Data reported in ChEMBL document CHEMBL1151825, “Schisanwilsonenes A-C, anti-HBV Carotane sesquiterpenoids from the fruits of Schisandra wilsoniana” (J Nat Prod, 2009).

Columns and labels:
Hepatitis B virus [1] = assay: Antiviral activity against HBV infected in human HepG2 2.2.15 cells assessed as inhibition of HBsAg secretion at 25 ug/mL after 9 days by ELISA; format: functional; settings: HepG2, 216 h
Hepatitis B virus [2] = assay: Antiviral activity against HBV infected in human HepG2 2.2.15 cells assessed as inhibition of HBeAg secretion at 50 ug/mL after 9 days by ELISA; format: functional; settings: HepG2, 216 h
[3] = Cytotoxicity of human HepG2(2.2.15) cells assessed as growth inhibition at 200 ug/mL by MTT assay; format: cell-based
Hepatitis B virus [4] = assay: Antiviral activity against HBV infected in human HepG2 2.2.15 cells assessed as inhibition of HBsAg secretion at 50 ug/mL after 9 days by ELISA; format: functional; settings: HepG2, 216 h
Hepatitis B virus [5] = assay: Antiviral activity against HBV infected in human HepG2 2.2.15 cells assessed as inhibition of HBeAg secretion at 25 ug/mL after 9 days by ELISA; format: functional; settings: HepG2, 216 h
[6] = Cytotoxicity of human HepG2(2.2.15) cells assessed as growth inhibition at 100 ug/mL by MTT assay; format: cell-based
Hepatitis B virus [7] = assay: Antiviral activity against HBV infected in human HepG2 2.2.15 cells assessed as inhibition of HBeAg secretion at 100 ug/mL after 9 days by ELISA; format: functional; settings: HepG2, 216 h
Hepatitis B virus [8] = assay: Antiviral activity against HBV infected in human HepG2 2.2.15 cells assessed as inhibition of HBsAg secretion at 100 ug/mL after 9 days by ELISA; format: functional; settings: HepG2, 216 h
Hepatitis B virus [9] = assay: Antiviral activity against HBV infected in human HepG2 2.2.15 cells assessed as inhibition of HBsAg secretion at 200 ug/mL after 9 days by ELISA; format: functional; settings: HepG2, 216 h
Hepatitis B virus [10] = assay: Antiviral activity against HBV infected in human HepG2 2.2.15 cells assessed as inhibition of HBeAg secretion at 200 ug/mL after 9 days by ELISA; format: functional; settings: HepG2, 216 h

Row | Compound | inhibition at 25 µg/mL (Hepatitis B virus [1]) | inhibition at 50 µg/mL (Hepatitis B virus [2]) | inhibition at 200 ug/mL [3] | inhibition at 50 µg/mL (Hepatitis B virus [4]) | inhibition at 25 µg/mL (Hepatitis B virus [5]) | inhibition at 100 ug/mL [6] | inhibition at 100 µg/mL (Hepatitis B virus [7]) | inhibition at 100 µg/mL (Hepatitis B virus [8]) | inhibition at 200 µg/mL (Hepatitis B virus [9]) | inhibition at 200 µg/mL (Hepatitis B virus [10])
1 | CC(C)(O)[C@@H]1CC[C@@]2(C)CCC(CO)=CC[C@H]12 (relative stereo) [SCHISANWILSONENE A] | 27.5% | 28.9% | ≥ 25% | 76.5% | 11.3% | ≥ 25% | – | – | – | –
2 | CC(=O)OCC1=CC[C@@H]2[C@H](C(C)(C)O)CC[C@@]2(C)CC1 (relative stereo) [SCHISANWILSONENE B] | 5.6% | 0% | ≥ 25% | 20.5% | 0% | – | 0% | 58.6% | – | –
3 | CC(C)(O)[C@@H]1CC[C@@]2(C)CCC(C=O)=CC[C@H]12 (relative stereo) [SCHISANWILSONENE C] | 0% | 1.4% | – | 5.5% | 1.1% | – | 6.1% | 11.7% | 28.3% | 8.8%
4 | Nc1ccn([C@@H]2CS[C@H](CO)O2)c(=O)n1 [LAMIVUDINE] | – | – | – | – | – | – | – | – | 28.6% | 34.8%
